Measured values: patent US7655626B2, “Antiangiogenic peptides” (Universite de Liege, priority 2004, dated 2010)

How the values were obtained:
[1] = Lipid phase (liposome) fusion, R18 fluorescence; conditions: for Relative liposome fusion, pH 8 UC / Relative liposome fusion, pH 4 UC / Relative liposome fusion, pH 6 UC: uncharged liposomes; for Relative liposome fusion, pH 4 C / Relative liposome fusion, pH 6 C / Relative liposome fusion, pH 8 C: charged liposomes
Procedure: Lipid phase fusion was measured by following the fluorescence of a liposoluble marker, R18. When incorporated into liposomes at a high surface density, R18 fluorescence is attenuated. Upon dilution of the marker through membrane fusion of labeled and unlabeled liposomes, the attenuation is relieved and R18 fluorescence increases. Labeled liposomes were prepared by blending R18 into the lipid film (see table 1). Labeled and unlabeled liposomes were mixed in a 1:4 ratio (w/w) and diluted to a concentration of 50 μM. Fluorescence is measured at room temperature (excitation λ: 560 nm, emission λ: 590 nm) on a Perkin Elmer LS-50B fluorimeter. The ability of PO-PRL to induce liposome fusion was analyzed in two different liposome preparations at different pH (table 1).
The following buffers were used: pH 8 buffer (10 mM Tris-HCl, pH=8; 150 mM NaCl; 0.01% EDTA; 1 mM NaN3), pH 6 buffer (10 mM Sodium-Acetate, pH=6; 150 mM NaCl; 0.01% EDTA; 1 mM NaN3), pH 4 buffer (10 mM Sodium Acetate, pH=4; 57 mM Acetic Acid)
The following concentrations of the peptide were used: • 600 μM corresponding to a molar peptide/lipid ratio (R) of 0.2 • 300 μM corresponding to a peptide/lipid ratio (R) of 0.1 • 150 μM corresponding to a peptide/lipid ratio (R) of 0.05 • 60 μM corresponding to a peptide/lipid ratio (R) of 0.02 • 30 μM corresponding to a peptide/lipid ratio (R) of 0.01.

[2] = Secondary structure by ATR-FTIR; format: physicochemical; conditions: peptide dissolved in 100% DMSO
Procedure: The conformation of the peptide in solution is analyzed by Fourier transformed infrared spectroscopy (ATR-FTIR). The sample (20 μg) is spread on a Germanium plate and spectra are recorded between 1800 and 1000 cm−1. The deconvolution of the 1700-1600 cm−1 area, corresponding to the amide I band, allows the determination of the secondary structure of the peptide (Goormaghtigh, E., et al. Biochim Biophys Acta 1422:[…] (1999)). The secondary structure of the peptide is given Table 3. Tilted peptides are often in β structure in solution, while being helical in the presence of lipids (Martin, I., et al. Biochem Biophys Res Commun 175:872-9 (1991)).

BACE cells [3] = experiment: Apoptosis by flow cytometry (propidium iodide, sub-G1 population); format: cell-based, Bovine; conditions: 10 nM; 18-h treatment; untreated cells 1%
Procedure: In order to determine the effect of MPB-PO-PRL on endothelial cell apoptosis, the inventors have analyzed the DNA content of MBP-PO-PRL treated cells by flow cytometry. For this purpose, DNA was labeled with propidium iodide. Bovine adrenal cortex endothelial (BACE) cells were plated in low-glucose Dulbbecco's modified Eagle's medium containing 10% fetal calf serum (FCS) and 100 U/ml penicillin/streptomycin per ml (10% FCS medium) at a density of cells 5×10^5/100 mm plate. 24 h after plating, cells were treated for 18 h with the proteins of interest. The cells were then harvested and fixed and permeabilized in ice-cold ethanol for 2 h before centrifugation and incubation (at 37° C. for 30 min) in PBS containing Rnase (5 μg/ml) and propidium iodide (50 μg/ml). The cells were analysed using a Coulter Epics XL flow cytometer.

BACE cells [4] = experiment: In vitro capillary formation, collagen gel assay; format: cell-based, Bovine; conditions: 10 nM
Procedure: In order to further analyze the ability of the MBP-PO-PRL to prevent angiogenesis in vitro, its capacity to prevent capillary formation was analyzed in a collagen gel assay. This assay was performed as follows: 20000 cells were plated between two collagen gels (5 volumes rat tail collagen, 1 volume 10×M199 medium, 50 mM NaHCO3). Gels were overlaid with 10% FBS medium containing or not recombinant proteins of interest.

[5] = tested on: B16-F10 murine melanoma cells; experiment: Viability assay (calcein-AM), B16-F10; format: cell-based; conditions: 10 nM; 72 h
Procedure: (§1) In order to determine whether the effect of tilted peptides exerted on endothelial cells is cell specific, a viability assay was performed on BACE and ABAE endothelial cells and on two tumoral cells lines, the B16-F10 murine melanoma cells and the MDA-MB-231 human breast cancer cell. Viable cells are detected by the presence of intracellular esterase, determined by the enzymatic conversion of non fluorescent calcein AM (an ester derivative) into fluorescent calcein.
(§2) To determine whether the activity of the MBP-PO-PRL and MBP-PO-GH is specific for endothelial cells, their ability to affect viability of B16-F10 and MDA-MB-231 cell line was determined. 25000 MDA-MB-231 cells and B16-F10 cells were plated in 24-well plates, respectively in 0.5 ml 10% FCS/RPMI medium and in 10% FCS/DMEM 4500 medium. The cells were treated with recombinant proteins or campthotecin for 72 h. Cells were washed, incubated with calcein-AM and fluorescence determined as described above.

[6] = tested on: MDA-MB-231 human breast cancer cell; experiment: Viability assay (calcein-AM), MDA-MB-231; format: cell-based; conditions: 10 nM; 72 h
Procedure: as §1, §2

With FLSLIVSILRSWNE [PO-PRL] the “Relative liposome fusion, pH 8 UC” value ([1]; R 0.05 (150 μM), 15 min) was 38%, the “Relative liposome fusion, pH 4 C” value ([1]; R 0.05, 15 min) was 35% and the “Relative liposome fusion, pH 4 UC” value ([1]; R 0.05, 15 min) was 100%. For the same molecule, the “Relative liposome fusion, pH 6 C” value ([1]; R 0.05, 15 min) was 35%, the “Relative liposome fusion, pH 6 UC” value ([1]; R 0.05, 15 min) was 38% and the “Relative liposome fusion, pH 8 C” value ([1]; R 0.05, 15 min) was 34%. For the same molecule, the “Relative liposome fusion, pH 8 UC” value ([1]; R 0.1 (300 μM), 15 min) was 64%, the “Relative liposome fusion, pH 4 C” value ([1]; R 0.1, 15 min) was 34% and the “Relative liposome fusion, pH 4 UC” value ([1]; R 0.1, 15 min) was 105%. The “Relative liposome fusion, pH 6 C” value ([1]; R 0.1, 15 min) was 44%, the “Relative liposome fusion, pH 6 UC” value ([1]; R 0.1, 15 min) was 55% and the “Relative liposome fusion, pH 8 C” value ([1]; R 0.1, 15 min) was 41%. The “Relative liposome fusion, pH 4 C” value ([1]; R 0.2, 15 min) was 47%, the “Relative liposome fusion, pH 4 UC” value ([1]; R 0.2, 15 min) was 97% and the “Relative liposome fusion, pH 6 C” value ([1]; R 0.2, 15 min) was 87%. For the same molecule, the “Relative liposome fusion, pH 6 UC” value ([1]; R 0.2, 15 min) was 68%, the “Relative liposome fusion, pH 8 C” value ([1]; R 0.2, 15 min) was 64% and the “Relative liposome fusion, pH 8 UC” value ([1]; R (peptide/lipid) 0.2 (600 μM), after 15 min, reference set at 100%) was 100%. The “Secondary structure: Alpha” value [2] was 16%, the “Secondary structure: Beta” value [2] was 63% and the “Secondary structure: Coil” value [2] was 9%. For the same molecule, the “Secondary structure: Turn” value [2] was 12%.

B1: 16K hPRL: 16 kDa N-terminal fragment of human prolactin, positive control (protein)
chain: LPICPGGAARCQVTLRDLFDRAVVLSHYIHNLSSEMFSEFDKRYTHGRGFITKAINSCHTSSLATPEDKEQAQQMNQKDFLSLIVSILRSWNEPLYHLVTEVRGMQEAPEAILSKAVEIEEQTKRLLEGMELIVSQVHP
In the case of B1, the “percentage of sub-G1 cell population” value (BACE cells [3]) is reported as 55,9%, the “capillary formation in collagen gel” value (BACE cells [4]) is reported as “prevents capillary formation” and the cell viability [5] is reported as “do not affect viability”. The cell viability [6] was “do not affect viability”.
